According to ChEMBL document CHEMBL1135540, “Identification of a pharmacophore for thrombopoietic activity of small, non-peptidyl molecules. 2. Rational design of naphtho[1,2-d]imidazole thrombopoietin mimics” (J Med Chem, 2002):

Tests used:
[1] = (§1) Activation of luciferase expression in BAF-3/TPO-Rluc cell line.; assay type: functional, cell-based; details: Homo sapiens
[2] = Efficacy in activation of luciferase expression in BAF-3/TPO-Rluc cell line and the value is reported as %TPO; assay type: functional, Homo sapiens
[3] = tested on: UT7; experiment: Efficacy in proliferation of the UT7/TPO-R cell line and the value is reported as %TPO; assay type: functional, Homo sapiens
[4] = tested on: UT7; experiment: Effective concentration for proliferation of UT7/TPO-R cell line.; assay type: functional, cell-based; details: Homo sapiens
[5] = Agonistic activity against proliferation of UT-7/TPO-R cell line; assay type: functional; details: Homo sapiens, UT7/TPO-R
[6] = Efficacy in activation of luciferase expression in UT-7/TPO-R cell line and the value is reported as % salicylaldehyde thio-semicarbazone-thrombopoietin (TPO); assay type: functional, Homo sapiens
[7] = Activation of luciferase expression in the proliferation of UT7/TPO-R cell line.; assay type: functional; details: Homo sapiens
[8] = as §1; assay type: cell-based; details: Homo sapiens

| SMILES | EC50 [1] [nM] | TPO [2] [%] | TPO [3] [%] | also measured |
| --- | --- | --- | --- | --- |
| Cc1ccc(-c2cccc(-c3nc4c(ccc5cc(S(=O)(=O)O)cc(O)c54)[nH]3)c2O)cc1C | 1200 | 36 | 70 | EC50 [4]: 1000 nM |
| O=S(=O)(O)c1cc(O)c2c(ccc3[nH]c(-c4c(O)ccc5ccccc45)nc32)c1 | 26000 | 11 | <10 | – |
| O=S(=O)(O)c1cc2[nH]c(-c3c(O)ccc4ccccc34)nc2c2c(O)cccc12 | 35000 | 52 | <10 | – |
| CC(C)(C)c1ccc(-c2cccc(-c3nc4c(ccc5cc(C(=O)O)cc(O)c54)[nH]3)c2)cc1 | – | – | – | EC50 [5]: 300 nM; TPO [6]: 60% |
| Cc1ccc(-n2[nH]c(C)c(/N=N/c3c(O)cc(S(=O)(=O)O)c4ccccc34)c2=O)cc1C | – | – | – | EC50 [7]: 40 nM |
| O=S(=O)(O)c1cc2[nH]c(-c3ccc4ccccc4c3O)nc2c2c(O)cccc12 | 4800 | 28 | <10 | – |
| Cc1ccc(-c2cccc(/C=N/N=C(\S)Nc3cccc(C(=O)O)c3)c2O)cc1C | – | – | – | EC50 [7]: 30 nM |
| O=S(=O)(O)c1cc(O)c2c(ccc3[nH]c(-c4ccc5ccccc5c4O)nc32)c1 | 9700 | 27 | <10 | – |
| CC(C)(C)c1ccc(-c2cccc(-c3nc4c(ccc5cc(S(=O)(=O)O)cc(O)c54)[nH]3)c2)cc1 | – | 100 | – | EC50 [8]: 80 nM |
